Peptide text beside a SMILES is read from it. * marks the point of attachment. NHBn = c1ccc(CN*)cc1
Molecular target: Mu-type opioid receptor (Homo sapiens, UniProt P35372)
Assay: Binding affinity to human mu opioid receptor

Mu-type opioid receptor, sequence (P35372 whole entry): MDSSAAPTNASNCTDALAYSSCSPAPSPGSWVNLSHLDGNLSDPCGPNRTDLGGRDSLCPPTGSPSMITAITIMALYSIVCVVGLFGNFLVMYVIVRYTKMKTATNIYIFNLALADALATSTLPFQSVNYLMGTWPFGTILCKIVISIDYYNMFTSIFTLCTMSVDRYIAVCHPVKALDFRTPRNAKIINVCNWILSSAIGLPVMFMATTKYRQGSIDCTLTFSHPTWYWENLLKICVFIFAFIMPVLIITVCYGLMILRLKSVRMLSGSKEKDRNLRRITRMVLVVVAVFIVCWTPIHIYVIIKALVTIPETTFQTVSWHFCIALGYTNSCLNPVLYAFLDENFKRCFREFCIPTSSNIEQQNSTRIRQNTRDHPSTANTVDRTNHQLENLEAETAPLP

SMILES	Ki [nM]
CC(C)[C@@H](NC(=O)[C@H](Cc1c[nH]c2ccccc12)NC(=O)[C@@H]1CCCN1C(=O)[C@@H](N)Cc1ccc(O)cc1)C(=O)NCc1ccccc1	2.32
CC(C)[C@@H](NC(=O)[C@H](Cc1ccccc1)NC(=O)[C@@H]1CCCN1C(=O)[C@@H](N)Cc1ccc(O)cc1)C(=O)NCc1ccccc1	4.97
C[C@@H](NC(=O)[C@H](Cc1c[nH]c2ccccc12)NC(=O)[C@@H]1CCCN1C(=O)[C@@H](N)Cc1ccc(O)cc1)C(=O)NCc1ccccc1	4.56
C[C@@H](NC(=O)[C@H](Cc1ccccc1)NC(=O)[C@@H]1CCCN1C(=O)[C@@H](N)Cc1ccc(O)cc1)C(=O)NCc1ccccc1	8.67
C[C@H](NC(=O)[C@H](Cc1ccccc1)NC(=O)[C@@H]1CCCN1C(=O)[C@@H](N)Cc1ccc(O)cc1)C(=O)NCc1ccccc1	122
N[C@@H](Cc1ccc(O)cc1)C(=O)N1CCC[C@H]1C(=O)N[C@@H](Cc1c[nH]c2ccccc12)C(=O)NCC(=O)NCc1ccccc1 (H-YPWG-NHBn)	56.2
